The source of these data is US20230391817A1, “5ALPHA-HYDROXY-6BETA-[2-(1-H-IMIDAZOL-4-YL)-ETHYLAMINO]-CHOLESTAN-3BETA-OL ANALOGUES AND PHARMACEUTICAL COMPOSITIONS COMPRISING SAME FOR USE IN THE TREATMENT OF CANCER” (priority 2020, published 2023).

Data set [1] can be described thus: Oral pharmacokinetic study in rat, LC/MS assay in plasma (Examples 21-24). Type of data set: in vivo. The following applies: in vivo, po, 50 mg/kg. On the procedure: The following study is an LC/MS assay in plasma of the various molecules over 3 days (11 measurement points in the end). The graphs are always presented in comparison with DX101 which is the reference.
Plasma sampling at 0 (without injection), 5, 10, 15, 30 min, 1 h, 4 h, 8 h, 24 h, 48 h, 72 h (11 points)

Data set [2] concerns murine 4T1 mammary tumor cells. Briefly: Cell viability of 4T1 cells, MTT. The class given is cell-based. The following applies: for IC50: Mus musculus, 4T1, MTT, 48 h; for cytotoxic activity compared with DX101: 4T1, Tables 1a, 1b and 1c (MTT, LDH, Green Cytotoxicity Assay). The protocol: (§1) Cell viability tests were performed on murine 4T1 mammary tumor cells characterized as triple negative (HER2-, ER-, PR-).
(§2) For this experiment, a cell culture medium was prepared. The culture medium consisted of Dulbecco's Modified Eagle Medium (DMEM, sold by Westburg as LO BE12-604F), comprising 4.5 g/L glucose with L-glutamine, to which 10% fetal calf serum (FCS) and 50 U/ml penicillin/streptomycin are added. The 4T1 cells were introduced into this culture medium.
(§3) 96-well plates were seeded with 2000 4T1 cells per well. After 72 hours (h) of culture under normal condition, i.e. in an incubator at 37° C. at […], the 4T1 cells were treated for 48 h with DX101, DX103, DX111, DX123, DX125, DX127 and DX129 at 100 nM, 1 μM, 2.5 μM and 10 μM. A control condition (CTL) is also performed in parallel using the previously described protocol without treatment with the molecules DX101, DX103, DX111, DX123, DX125, DX127 or DX129.
(§4) The cell viability is measured by three different methods. For the first method, MTT labeling is performed at 48 hours. This test is based on the use of the tetrazolium salt MTT (3-(4,5-dimethylthiazol-2-yl)-2,5-diphenyltetrazolium bromide). Tetrazolium is reduced by mitochondrial succinate dehydrogenase in active live cells to formazan, a purple colored precipitate. The amount of precipitate formed is proportional to the amount of live cells but also to the metabolic activity of each cell. Thus, a simple determination of the optical density at 550 nm by spectroscopy makes it possible to determine the relative amount of live and metabolically active cells. After 48 hours, the medium is aspirated, and the cells are incubated with MTT (0.5 mg/ml in culture medium) for about 3 hours. The MTT solution is aspirated and the purple crystals are dissolved in dimethyl sulfoxide (DMSO). The OD (optical density) is measured at 550 nm. The percentage of viability is then determined in each well against the CTL and the IC50 (concentration at which 50% of cells remain alive) is determined for each molecule with the Prism software using a nonlinear regression curve (log(inhibitor) vs. Response).

In data set [3] the test system is murine 4T1 mammary tumor cells. Briefly: Cell viability of 4T1 cells, LDH. The class given is cell-based. The following applies: Mus musculus, 4T1, LDH, 48 h. On the procedure: as §1, §2, §3
For the second method, the percentage of viability is determined by assaying the activity of the enzyme LDH (lactate dehydrogenase) in cell supernatants using the non radioactive cytotoxicity assay kit (Promega). LDH is an enzyme released in the supernatant of dead cells. The higher the LDH activity in the supernatant, the greater the cell death. In this enzyme assay, the LDH released converts a violet tetrazolium salt to a red colored formazan, absorbing at 490 nm. The intensity of the red color is proportional to the number of dead cells. After 48 h of treatment, the supernatants are transferred to a new 96-well plate and incubated for 30 minutes in the presence of substrate mix at room temperature. The reaction is stopped with stop solution reagent and the absorbance is determined at 490 nm. The percentage of cell death is determined here using a 100% maximum LDH activity control (made from untreated cells incubated in the presence of lysis solution for 45 minutes at 37° C. just prior to addition of the substrate mix), and the cell viability in each well is then deduced from this percentage. The IC50 is then determined as explained in the preceding paragraph.

Data set [4] relates to murine 4T1 mammary tumor cells. Briefly: Cell viability of 4T1 cells, CellTox Green Cytotoxicity Assay. The class given is cell-based. The following applies: Mus musculus, 4T1, Green Cytotoxicity Assay, 48 h. The protocol:
as §1, §2, §3
For the third method, the percentage viability is determined using the CellTox Green Cytotoxicity Assay kit (Promega). This assay measures cell death via a change in membrane integrity. […] Consequently, the higher the fluorescence in the wells, the greater the cell death. […] The percentage of cell death is determined using the 100% cell death control (made from untreated cells incubated in the presence of the lysis solution for 30 minutes at 37° C. prior to the addition of Celltox green reagent), and the cell viability in each well is then deduced from this percentage. The IC50 is then determined as explained previously.

For data set [5], the system named is BT-474 human mammary tumor cells. Briefly: Cell viability of BT-474 cells, MTT. The following applies: for Mean LogIC50 (±SEM) / IC50: BT-474, MTT, 48 h; for Mean LogIC50 (±SEM): log of IC50 in μM; for activity compared with DX101: BT-474, Tables 2a, 2b and 2c (MTT, LDH, Trypan Blue); for IC50: Homo sapiens. Type of data set: cell-based. The protocol:
as §4
(§5) Cell viability tests were also performed on BT-474 human mammary tumor cells (characterized as triple positive HER2+, ER+, PR+). The BT-474 cells were in a cell culture medium identical to the previous example and seeded in 24-well plates at 70 000 cells per well for cell viability determination using trypan blue, or in 96-well plates at 13 000 cells per well for cell viability determination using the MTT or LDH assay. After 96 hours (h) of culture under normal conditions, i.e. in an incubator at 37° C. with […], BT-474 cells were treated for 48 h with DX101, DX103, DX105, DX111, DX123 and DX127 at 100 nM, 1 μM, 2.5 μM and 10 μM. A control is also performed using the protocol described previously without treatment with DX101, DX103, DX105, DX111, DX123 and DX127.
(§6) After a 10-minute trypsin digestion at 37° C., the cell survival was also quantified by means of a trypan blue test with automatic counting using the Biorad TC20 machine (TC20™ Automated Cell Counter). The trypan blue test is based on the integrity of cell membranes, which is disrupted in the dead cells. Trypan blue stains dead cells blue. The Biorad TC20 cell counter counts the proportion of blue and non-blue cells, and reports the percentage of cells. The percentage of viability is then determined in each well relative to the untreated cells and the IC50 is determined as explained in the preceding example. Also, the percentage viability of the BT-474 cells was determined using the MTT and LDH assay, performed as described in the preceding example.

Data set [6] shares this test system. In words: Cell viability of BT-474 cells, trypan blue. The class given is cell-based. The following applies: BT-474, Trypan Blue, 48 h; for Mean LogIC50 (±SEM): log of IC50 in μM; for IC50: Homo sapiens. The protocol:
as §5, §6

Setting [7] is: log of IC50 in μM, read-out: Mean LogIC50 (±SEM) (converted).

Molecules are shown by their SMILES.

For `CO[C@H]1CC[C@]2(C)[C@H]3CC[C@]4(C)[C@@H]([C@H](C)CCCC(C)C)CC[C@H]4[C@@H]3C[C@@H](NCCc3c[nH]cn3)[C@@]2(O)C1` [DX103, 3β-methoxy-5α-hydroxy-6β-[2-(1H-imidazol-4-yl)ethylamino]cholestane], in data set [1], the “Area under the curve” value was determined as 105351. Further, the Max concentration in data set [1] amounted to 135 nM. Moreover, the “Time for Cmax” value in data set [1] turned out to be 240 min. Moreover, the “bioavailability / extent of absorption compared with DX101” value in data set [1] is reported as “slightly lower bioavailability”. Further, the “speed of absorption compared with DX101” value in data set [1] was “faster absorption”. For the same compound, the IC50 in data set [2] (setting [7]) is 3.16 µM; in data set [2] (read-out: IC50), 3.16 µM; in data set [3] (setting [7]), 4.37 µM; in data set [3] (read-out: IC50) it was 4.4 µM; in data set [4] (setting [7]) it was 2.63 µM; in data set [4] (read-out: IC50), 2.63 µM. Besides, the results for the IC50 in data set [5] and in data set [6] were 7.08 µM and 2.62 µM, respectively. In addition, the “Mean LogIC50 (±SEM)” value worked out at 0.85 ± 0.05 in data set [5] and 0.42 ± 0.25 in data set [6]. Also, the “activity compared with DX101” value in data set [5] was “similar”.

With `CCO[C@H]1CC[C@]2(C)[C@H]3CC[C@]4(C)[C@@H]([C@H](C)CCCC(C)C)CC[C@H]4[C@@H]3C[C@@H](NCCc3c[nH]cn3)[C@@]2(O)C1` [DX105, 3β-ethoxy-5α-hydroxy-6β-[2-(1H-imidazol-4-yl)ethylamino]cholestane], in data set [1], the “Area under the curve” value is 145590, the Max concentration is 197 nM, the “Time for Cmax” value is 240 min and the “bioavailability / extent of absorption compared with DX101” value is on record as “equivalent to (or even slightly higher than)”. Also, in data set [1], the “maximum concentration compared with DX101” value is “much higher maximum concentration” and the “speed of absorption compared with DX101” value is listed as “much faster absorption”. In data set [5], the “Mean LogIC50 (±SEM)” value stood at 0.86 ± 0.04, the “activity compared with DX101” value is “similar” and the IC50 came to 4.08 µM. In data set [6], the “Mean LogIC50 (±SEM)” value is given as 0.55 ± 0.14 and the IC50 is 3.57 µM.

Take `CCCCCCCCO[C@H]1CC[C@]2(C)[C@H]3CC[C@]4(C)[C@@H]([C@H](C)CCCC(C)C)CC[C@H]4[C@@H]3C[C@@H](NCCc3c[nH]cn3)[C@@]2(O)C1` [DX115, 3β-octanoxy-5α-hydroxy-6β-[2-(1H-imidazol-4-yl)ethylamino]cholestane]: the IC50 in data set [2] (setting [7]) was 37.2 µM; in data set [2] (read-out: IC50), > 10 µM; in data set [3] (setting [7]), 17.4 µM; in data set [3] (read-out: IC50), > 10 µM; in data set [4] (setting [7]), 25.1 µM; in data set [4] (read-out: IC50), > 10 µM.

As to `CC(C)CCC[C@@H](C)[C@H]1CC[C@H]2[C@@H]3C[C@@H](NCCc4c[nH]cn4)[C@@]4(O)C[C@@H](N=[N+]=[N-])CC[C@]4(C)[C@H]3CC[C@]12C` [DX123, 3β-azido-5α-hydroxy-6β-[2-(1H-imidazol-4-yl)ethylamino]cholestane], in data set [1], the “Area under the curve” value amounted to 6711. This compound came in with a Max concentration in data set [1] of 721 nM. Moreover, the “Time for Cmax” value in data set [1] came out at 4 min. In addition, the “bioavailability / extent of absorption compared with DX101” value in data set [1] was “twofold higher bioavailability”. The “cytotoxic activity compared with DX101” value in data set [2] is “tendency to be higher”. Also, the IC50 in data set [2] (setting [7]) was 5.89 µM; in data set [2] (read-out: IC50) it was 5.94 µM; in data set [3] (setting [7]), 1.45 µM; in data set [3] (read-out: IC50) it was 1.45 µM; in data set [4] (setting [7]), 2.09 µM; in data set [4] (read-out: IC50), > 10 µM. In data set [5], the “activity compared with DX101” value is reported as “tends to be superior”.

Turning to `CC(C)CCC[C@@H](C)[C@H]1CC[C@H]2[C@@H]3C[C@@H](NCCc4c[nH]cn4)[C@@]4(O)C[C@@H](N)CC[C@]4(C)[C@H]3CC[C@]12C` [DX125, 3β-amino-5α-hydroxy-6β-[2-(1H-imidazol-4-yl)ethylamino]cholestane], in data set [2], the “cytotoxic activity compared with DX101” value is recorded as “lower”. Also, the IC50 in data set [2] (setting [7]) is 145 µM; in data set [2] (read-out: IC50), > 10 µM; in data set [3] (setting [7]) it was 36.3 µM; in data set [3] (read-out: IC50) it was > 10 µM; in data set [4] (setting [7]) it was 22.4 µM; in data set [4] (read-out: IC50), > 10 µM.

Turning to `CC(=O)N[C@H]1CC[C@]2(C)[C@H]3CC[C@]4(C)[C@@H]([C@H](C)CCCC(C)C)CC[C@H]4[C@@H]3C[C@@H](NCCc3c[nH]cn3)[C@@]2(O)C1` [DX127, 3β-acetamido-5α-hydroxy-6β-[2-(1H-imidazol-4-yl)ethylamino]cholestane], the “cytotoxic activity compared with DX101” value in data set [2] is recorded as “lower”. The IC50 in data set [2] (setting [7]) is 11.7 µM; in data set [2] (read-out: IC50) it was 11.7 µM; in data set [3] (setting [7]) it was 7.08 µM; in data set [3] (read-out: IC50), 7.09 µM; in data set [4] (setting [7]), 11 µM; in data set [4] (read-out: IC50), 10.9 µM. Besides, the “activity compared with DX101” value in data set [5] is listed as “similar”.

For the compound `CC(C)CCC[C@@H](C)[C@H]1CC[C@H]2[C@@H]3C[C@@H](NCCc4c[nH]cn4)[C@@]4(O)C[C@@H](S(C)(=O)=O)CC[C@]4(C)[C@H]3CC[C@]12C` [DX129, 3β-methylsulfonyl-5α-hydroxy-6β-[2-(1H-imidazol-4-yl)ethylamino]cholestane], the “cytotoxic activity compared with DX101” value in data set [2] is “lower”. The IC50 is 15.1 µM in data set [2] (setting [7]); 15.1 µM in data set [2] (read-out: IC50); 3.89 µM in data set [3] (setting [7]); 3.87 µM in data set [3] (read-out: IC50); 16.2 µM in data set [4] (setting [7]); 16.2 µM in data set [4] (read-out: IC50).
